The results in this text go back to patent publication US20250270170A1, “2,3-DIMETHOXY-5-METHYL-1,4-BENZOQUINONE ALKYL ALCOHOL DERIVATIVE AND USE THEREOF” (BEIJING ANJIANXI BIO-MEDICAL TECHNOLOGY CO., LTD., priority 2021, published 2025).

Where “and” joins values, the source holds several entries; their conditions need not be identical. Identical values can stand only once. Entries after “also recorded” stand apart in the source; their conditions may differ.

In one data set the test system is A549 cells. Put plainly: Colony formation assay, A549. The data set is classed as cell-based, human. To be noted: 50 μM and 150 μM vs 0 μM, about 2 weeks. As for the experimental part: (1) The cell status was observed under a microscope. Cells in the logarithmic growth phase were selected and digested to make a cell suspension. 20 μl of the cell suspension was taken with a pipette and added to the CountStar disposable cell counting plate for cell counting, and the counting results were recorded.
(2) A 6-well culture plate was used for colony formation assay. Approximately 1,000 cells were inoculated into each well, and the complete culture medium was added to make up the volume to 2.5 ml per well. The cells were shaked in a figure-8 pattern to disperse the cells evenly. The next day, the compound of formula (I) at different concentrations (0 μM, 50 μM, and 150 μM) were added to the corresponding wells according to the assay plan, and incubated in an incubator at 37° C. with 5% CO2 for about 2 weeks. The culture was terminated when visible colonies appeared.
(3) The culture plate was taken out, and the old culture medium was discarded. The cells were gently washed twice with PBS.
(4) 500 μl of 4% paraformaldehyde fixative was added to each well to fix the cells at room temperature for 15 minutes, and then the fixative was discarded.
(5) 500 μl of 0.1% crystal violet solution was added to each well, and cells were stained at room temperature for at least 15 minutes. The crystal violet was discarded, and the staining solution was slowly washed away with running water. […]

The subject of data set [1] is cisplatin-induced acute kidney damage in mice. As to the kind of experiment: Example 11: renal pathology (HE, PAS) and pathological scoring. The data set is classed as in vivo, C57BL/6J mice. The note with it: bid, listed as R01. As for the experimental part:
42 male C57BL/6J mice (age: 6 to 8 weeks, body weight 18-20 g, certificate number: 11400700238365) were purchased from Si Pei Fu (Beijing) Biotechnology Co., Ltd., and raised in an SPF-grade animal room of the Institute of Materia Medica, Chinese Academy of Medical Sciences, at a temperature of 20 to 25° C., a relative humidity of 40% to 70%, and a cycle of 12 hours of light and 12 hours of dark. The animals had free access to water and food. After 3 days of normal feeding, mice with good physical conditions after the veterinary examination were selected for this assay. Before grouping, a marker was used to mark on the base of the animals' tail. After grouping, each animal was marked with an ear cutout (7 mice in each group).
Assay animals: 42 7-week-old male C57 mice were used for animal testing after an adaptive feeding.
Group 1: blank control group;
The preparation of the R01 formulation administration test solution was the same as that in Example 5: an appropriate amount of the R01 formulation was weighed according to the three dosages set in the assay, respectively, and an appropriate volume of 0.5% CMC-Na aqueous solution was added. The mixture was vortexed and sonicated until mixed evenly, to give the administration test solutions with concentrations of […], respectively, which were ready for use.
Animal testing period: 7 days (excluding adaptive feeding), hereinafter referred to as: D1-D7.
1. […]
The body weight of the animals when being grouped for administration in each group was recorded. The body weight and the kidney weight at the end of the assay were also recorded, and the kidney coefficient was calculated. The creatinine and urea nitrogen values in the blood samples sent for testing were recorded. […]

The next data set has as its system ICR mice. As to the kind of experiment: Example 6: repeated gavage administration toxicity for 2 weeks. The data set is classed as in vivo. An excerpt: The compound of formula (I) was gavagely administered continuously to ICR mice for 14 days, to evaluate the nature, degree, and time-effect relationship of the toxic reactions that the compound of formula (I) may cause, and to provide reference information for the subsequent research.
Preparation of the administration formulation of the test sample in each dosage group: The preparation of the test sample was the same as that in Example 5. When the test sample was used, a final volume mark was marked on a container, and a required amount of the test sample was weighed (weighing weight of the test sample=theoretical dosage/conversion factor) into a container. An appropriate amount of solvent was firstly added, and the mixture was stirred and mixed thoroughly, and sonicated if necessary. The solvent was further added to the final volume mark to dilute and mix evenly, to give a visually uniform formulation, which was verified by the methodology. […] The administration formulation of the test sample with a concentration range of 0.01 mg/mL to 60 mg/mL was stable within 8 days when being stored airtightly at 2° C. to 8
Route of Administration: Oral Gavage
Administered once a day; while maintaining the same administration period every day.
Administered continuously for 14 days
The dosage was calculated based on the latest animal body weight.
The administration formulation of the test sample was stirred at room temperature for at least 10 minutes, and suspended uniformly with visual inspection before the administration. The administration formulation of the test sample was required to be continually stirred during the administration.
Observation indicators: observation of general physical signs, detailed clinical observation, body weight, and food intake were included.

Where [2] appears, read: 100 mg/kg dosage group, surviving animals.

On to `COC1=C(OC)C(=O)C(CCCCCCCCCCOC(=O)Cc2c(C)n(C(=O)c3ccc(Cl)cc3)c3ccc(OC)cc23)=C(C)C1=O` [compound of formula (I)], for which the colony-forming ability entry in the data set with A549 cells is “decreased significantly”. In addition, the “pathological damage of kidneys” value in data set [1] (cisplatin 10 mg/kg + R01 6 mg) is “severe renal tubular damage, epithelial cell necrosis and slight protein casts and 2 animals suffered serious kidney damage, and the others were mildly damaged and significantly reduced”; in data set [1] (cisplatin 10 mg/kg + R01 36 mg) it was “Only one mouse in this group showed slight pathological damage to the kidney; also recorded: basically complete kidney tissue morphology, slight damage”. For the same compound, the abnormal reactions entry in the data set with ICR mice (25 mg/kg dosage group), with ICR mice (50 mg/kg dosage group) and with ICR mice (setting [2]) was “No abnormal reactions” in each case. In addition, the body weight entry in the data set on ICR mice (25 mg/kg dosage group), in the data set with ICR mice (50 mg/kg dosage group) and in the data set on ICR mice (setting [2]) was “increased normally” throughout. For the same compound, the animals found dead entry in the data set with ICR mice (25 mg/kg dosage group, 20 animals per group, gavage once a day, 14 days) was “No animal was found dead”; in the data set on ICR mice (50 mg/kg dosage group, 20 animals per group, gavage once a day, 14 days), “No animal was found dead”; in the data set with ICR mice (100 mg/kg dosage group, 20 animals per group, gavage once a day, 14 days), 3; in the data set with ICR mice (300 mg/kg dosage group, 20 animals per group, gavage once a day, 14 days), 10; with ICR mice (1000 mg/kg dosage group, 20 animals per group, gavage once a day), 13; in the data set with ICR mice (1000 mg/kg/d dosage group, from D3 to D6, administration then stopped), 4.
